Where no end group is shown, it is not given here.
How the values were obtained:
[1] = tested on: SH-SY5Y cells; test: Mitochondrial ROS (MitoSox Red), SH-SY5Y; format: cell-based, human; settings: overnight treatment, normalized to no peptide; 3 independent experiments
Method: (§1) Represented Western blot is cropped from a full blot shown in the Expanded Western Blots section of the Supplementary Information. […] Hoechst 33342 is shown in blue and Tom20 in green (n = 3, 10 images each). Below, quantification of the form factor (degree of branching) and major axis length (length of mitochondria). At least 6,000 mitochondrial fragments were measured for each condition. Mitochondrial reactive oxygen species (ROS) production (MitoSox Red) (c) and mitochondrial membrane potential (TMRM) (d) after overnight treatment with indicated concentrations of peptide or FCCP. Data are from 3 independent experiments per condition normalized to the average no peptide value. (e) Relative mitochondrial ROS (MitoSox Red) signal in GFP positive cells expressing full-length or alanine-substituted P259 at indicated amino acids after two days of transfection. Values are normalized to a GFP empty vector (n = 3, with 3 replicates). […] Data are mean ± s.e.
(§2) Following treatment, cells were washed with treatment media.
(§3) The Cy5 filter was used to autofocus on the mitochondria plane. […] MitoROS was calculated as the average MitoSox signal per cell. The mitochondrial membrane potential was calculated as the average TMRM signal in the mitochondrial mask. […]
(§4) calculated as the average MitoSox signal per cell. […]

[2] = tested on: SH-SY5Y cells; test: Mitochondrial membrane potential (TMRM), SH-SY5Y; format: cell-based, human; settings: overnight treatment, normalized to no peptide; 3 independent experiments
Method: as §1, §2, §3, §4

[3] = tested on: wild-type MEFs; test: Mitochondrial ROS (MitoSox), WT MEFs; format: cell-based, mouse; settings: 4 µM P259 daily for three days, vs no peptide; 3 independent experiments, three technical replicates; *** p <0.001
Source text: (§5) Data are of 3 independent experiments with the whiskers calculated by the Turkey method. e. […]
production in an Mff -dependent manner. Mitochondrial reactive oxygen species production […]
treatment in each cell line. […]
(§6) determined by an unpaired, two -tailed t test). g. […]
control (no peptide treatment). Data are mean ± s.e. from 3 independent experiments.
Mitochondrial reactive oxygen species determination […]
and 1% penicillin-streptomycin solution (Corning, NY, USA). […]
(§7) and without phenol red. […] After incubation
(§8) HEPES, and without phenol red. […]
(§9) epifluorescence microscope with a 10X objective (Keyence). The Cy5 filter (Keyence) was used to autofocus on the mitochondria plane. […]
as §4

[4] = tested on: MFF knockout MEFs; test: Mitochondrial membrane potential (TMRM), MFF knockout MEFs; format: cell-based, mouse; settings: 20 µM P259 overnight, vs no peptide; 3 independent experiments, three technical replicates; ns p = 0.93
Method: as §5, §6
control (no peptide treatment). Data are mean ± s.e. from 3 independent experiments. […]
as §7, §8, §9
Mitochondrial membrane potential determination
After treatment, cells were washed with
Cells were incubated in a 37
°C incubator for 30 minutes. […]

[5] = tested on: striatal neurons; test: Transmission electron microscopy of striatum; format: in vivo, mouse; settings: 3 mg/Kg/day, 8 weeks, WT mice; 806 (TAT) and 1109 (P259) mitochondria from ten images per condition
Source text: (§10) (a) Quantification of mitochondrial Drp1 content relative to ALDH2 (a mitochondrial matrix enzyme) in the mitochondrial fraction isolated from total brain lysate of wild-type mice (Western blot shown in Fig. S3B) (n = 4 mice). (b) ATP content in brain tissue of wild-type mice (n = 4 mice, 2 replicates). (c) Representative transmission electron microscopy images of the striatum from wild-type mice. […] The first principal component represents 42% of the variation. (f) Local linear embedding dimensionality reduction and visualization of all behaviors collected weekly from TAT- (black) or P259- (purple) treated WT and TAT- (white) treated R6/2 mice over the course of 8 weeks. […] All behavior and survival tests were conducted by an experienced observer who was blinded to the treatment groups. Data are mean ± s.e.
(§11) Five-week old R6/2 HD mice and their wild-type littermates (a total of 60 mice) were implanted subcutaneously with a 28-d Alzet osmotic pump with either P259-TAT or TAT control peptide (15 mice per group) to be delivered continuously at a rate of 3 mg/Kg/day, as previously described. All mice were implanted twice for a total of an 8-week treatment. 20 of the WT mice were implanted 3 times for a total of a 12-week treatment at 3 mg/Kg/day. […]
(§12) To quantify mitochondrial motility, the images at time 0 and 150 seconds w ere overlaid. […]

[6] = tested on: HD R6/2 model mice; test: Survival of R6/2 Huntington's mice; format: in vivo, mouse; settings: 3 mg/Kg/day, continuous subcutaneous osmotic pump, 8 weeks, vs TAT; 15 mice per group
Source text: as §10, §11, §12

Which “mitochondrial ROS levels” value [1] does the source give for “YGRKKRRQRRRGSGIIQLPEIVVV-NH2 (C-terminus assumed) [P259]” here?
The value was “increase in mitochondrial reactive oxygen species (ROS) levels”.

What about the mitochondrial membrane potential [2] of the same substance?
The mitochondrial membrane potential was “mitochondrial depolarization”.

What about the “mitochondrial ROS production, WT MEFs” value [3] of the same substance?
Its value is “increases mitochondrial ROS”.

And the “effect on mitochondrial membrane potential, Mff knockout MEFs” value [4]?
The value was “insensitive”.

And the “mitochondrial size and shape in striatal neurons (electron microscopy)” value [5]?
The value was “larger and more elongated mitochondria in striatal neurons”.

And the “survival of HD R6/2 mice” value [6]?
Its value is “further decline in survival”.
